Measured values as given in PubChem BioAssay AID256 (DTP/NCI, 2004).
Several values for one entry are separate records, joined by “and”; a condition that tells them apart may be missing. Equal entries are not always repeated. Inconclusive results and toxic doses are left out. How the source made its calls: active means survival T/C of 150% or more; inactive means T/C below 125% in these data.

System: CD2F1 mice, L1210 leukemia ip, survival T/C
Assay: NCI In Vivo Anticancer Drug Screen. Data for tumor model L1210 Leukemia (intraperitoneal) in CD2F1 (CDF1) mice
Conditions: endpoint: mean survival time, higher = longer survival
In short: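 Read-out first: treated-group measurement over vehicle-control measurement, expressed as a ratio. Animals bore a transplanted tumor line and were dosed with compound or vehicle.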

[1] = dose: 100.0 mg/kg/injection, schedule: Q04DX003 (ip), vehicle: saline with Tween-80
[2] = dose: 200.0 mg/kg/injection, schedule: Q04DX003 (ip), vehicle: saline with Tween-80
[3] = dose: 400.0 mg/kg/injection, schedule: Q04DX003 (ip), vehicle: saline with Tween-80
[4] = dose: 100.0 mg/kg/injection, schedule: Q01DX009 (ip), vehicle: saline with Tween-80
[5] = dose: 200.0 mg/kg/injection, schedule: Q01DX009 (ip), vehicle: saline with Tween-80
[6] = dose: 400.0 mg/kg/injection, schedule: Q01DX009 (ip), vehicle: saline with Tween-80
[7] = dose: 12.5 mg/kg/injection, schedule: Q01DX005 (ip), vehicle: other
[8] = dose: 100.0 mg/kg/injection, schedule: Q04DX002 (ip), vehicle: saline with Tween-80
[9] = dose: 200.0 mg/kg/injection, schedule: Q04DX002 (ip), vehicle: saline with Tween-80
[10] = dose: 400.0 mg/kg/injection, schedule: Q04DX002 (ip), vehicle: saline with Tween-80
[11] = dose: 25.0 mg/kg/injection, schedule: Q04DX002 (ip), vehicle: saline with Tween-80
[12] = dose: 50.0 mg/kg/injection, schedule: Q04DX002 (ip), vehicle: saline with Tween-80
[13] = dose: 100.0 mg/kg/injection, schedule: Q01DX001 (ip), vehicle: saline with Tween-80
[14] = dose: 200.0 mg/kg/injection, schedule: Q01DX001 (ip), vehicle: saline with Tween-80
[15] = dose: 400.0 mg/kg/injection, schedule: Q01DX001 (ip), vehicle: saline with Tween-80
[16] = dose: 200.0 mg/kg/injection, schedule: Q01DX009 (ip), vehicle: saline
[17] = dose: 100.0 mg/kg/injection, schedule: Q01DX001 (ip), vehicle: saline
[18] = dose: 200.0 mg/kg/injection, schedule: Q01DX001 (ip), vehicle: saline
[19] = dose: 400.0 mg/kg/injection, schedule: Q01DX001 (ip), vehicle: saline

Measured: T/C

Cc1cc(=O)cc(C)n1C
inactive: [1] 98 % of control | [2] 97 % of control | [3] 94 % of control

COC(=O)C(O)c1ccc2c(c1)OCO2 (configuration not stated)
inactive: [4] 97 % of control | [5] 90 % of control | [6] 90 % of control

CCC[CH2][Sn]1([CH2]CCC)[O]C2C(CO)OC(n3ccc(=O)[nH]c3=O)C2[O]1 (configuration not stated)
inactive: dose: 1.56 mg/kg/injection, schedule: Q01DX005 (ip), vehicle: other 98 % of control | dose: 3.13 mg/kg/injection, schedule: Q01DX005 (ip), vehicle: other 102 % of control | dose: 6.25 mg/kg/injection, schedule: Q01DX005 (ip), vehicle: other 112 % of control | [7] 100 % of control

[CH3][Sb]([CH3])([CH3])([O]C(=O)CCl)[O]C(=O)CCl
inactive: [8] 107 % of control | [9] 107 % of control | [10] 103 % of control

Cc1ccc(Cl)cc1NC(=O)c1ccc([N+](=O)[O-])cc1
inactive: [1] 90 % of control

C/C(=C\C(=O)Nc1ccc(S(=O)(=O)F)cc1)c1ccc([N+](=O)[O-])cc1
inactive: [11] 103 % of control and 104 % of control | [12] 96 % of control and 102 % of control | [13] 97 % of control | [4] 104 % of control and 106 % of control | [8] 100 % of control (2×) and 104 % of control | [1] 104 % of control | [14] 92 % of control | [5] 96 % of control | [9] 96 % of control and 102 % of control and 107 % of control | [2] 101 % of control | [15] 95 % of control | [6] 96 % of control and 100 % of control | [10] 98 % of control | [3] 93 % of control

CCN(CC)CCNc1c2ccc(Cl)cc2nc2c1c(C)nn2C
inactive: [1] 95 % of control | [2] 100 % of control | [3] 100 % of control

CCOC(=O)/C(C#N)=C1\CCc2cc(OC)ccc21
inactive: [4] 92 % of control | [1] 103 % of control | [5] 93 % of control | [2] 92 % of control | [6] 92 % of control | [3] 98 % of control

NC1=NN(c2ccccc2)CC1
inactive: dose: 5.0 mg/kg/injection, schedule: Q01DX009 (ip), vehicle: saline with Tween-80 96 % of control | dose: 5.0 mg/kg/injection, schedule: Q04DX003 (ip), vehicle: saline with Tween-80 94 % of control | dose: 10.0 mg/kg/injection, schedule: Q01DX009 (ip), vehicle: saline with Tween-80 96 % of control | dose: 10.0 mg/kg/injection, schedule: Q04DX003 (ip), vehicle: saline with Tween-80 91 % of control | dose: 20.0 mg/kg/injection, schedule: Q01DX009 (ip), vehicle: saline with Tween-80 106 % of control | dose: 20.0 mg/kg/injection, schedule: Q04DX003 (ip), vehicle: saline with Tween-80 86 % of control

ClCCCN1CCCCC1CCl (configuration not stated)
active: dose: 25.0 mg/kg/injection, schedule: Q04DX003 (ip), vehicle: saline 173 % of control
inactive: dose: 3.12 mg/kg/injection, schedule: Q04DX003 (ip), vehicle: saline 104 % of control | dose: 6.25 mg/kg/injection, schedule: Q04DX003 (ip), vehicle: saline 113 % of control

O=P(NC12CC3CC(CC(C3)C1)C2)(N1CC1)N1CC1
active: dose: 30.0 mg/kg/injection, schedule: Q04DX003 (ip), vehicle: Klucel (hydroxypropylcellulose) (HPC) 162 % of control
inactive: dose: 4.8 mg/kg/injection, schedule: Q04DX003 (ip), vehicle: Klucel (hydroxypropylcellulose) (HPC) 120 % of control | dose: 9.6 mg/kg/injection, schedule: Q04DX003 (ip), vehicle: Klucel (hydroxypropylcellulose) (HPC) 120 % of control

CC(C)C(=O)C(C)(C)C(=O)N1CCCC1
inactive: dose: 100.0 mg/kg/injection, schedule: Q01DX009 (ip), vehicle: saline 92 % of control | [16] 103 % of control | dose: 400.0 mg/kg/injection, schedule: Q01DX009 (ip), vehicle: saline 91 % of control

CCN(CC)c1ccc2cc3ccc(=[N+](CC)CC)cc-3oc2c1
inactive: dose: 9.0 mg/kg/injection, schedule: Q01DX010 (ip), vehicle: saline 106 % of control

O=S(=O)(Nc1ccc2c3c(cccc13)C=C2)c1ccccc1
inactive: [1] 98 % of control | [2] 98 % of control | [3] 98 % of control

O=C(/C=C/c1ccc2c(c1)OCO2)c1ccc(Cl)cc1
inactive: [1] 94 % of control | [2] 89 % of control

CN(C)[C@@H]1C(=O)C(C(=O)NCNC(CO)(CO)CO)=C(O)[C@@]2(O)C(=O)C3=C(O)c4c(O)cccc4[C@@](C)(O)[C@H]3C[C@@H]12
inactive: [16] 93 % of control | dose: 264.0 mg/kg/injection, schedule: Q01DX009 (ip), vehicle: acetone 97 % of control | dose: 300.0 mg/kg/injection, schedule: Q01DX009 (ip), vehicle: saline 98 % of control | dose: 400.0 mg/kg/injection, schedule: Q01DX009 (ip), vehicle: acetone 92 % of control

CSc1nc(N)c2c(ncn2C2OC(CO)C(O)C2O)n1 (configuration not stated)
inactive: [17] 105 % of control | [18] 100 % of control | [19] 97 % of control

NC(=O)/C=C/C(=O)NC(=O)Cc1ccccc1
inactive: dose: 3.0 mg/kg/injection, schedule: Q01DX009 (ip), vehicle: saline with Tween-80 97 % of control | dose: 6.0 mg/kg/injection, schedule: Q01DX009 (ip), vehicle: saline with Tween-80 98 % of control | dose: 12.0 mg/kg/injection, schedule: Q01DX009 (ip), vehicle: saline with Tween-80 92 % of control

Cc1ccc(C23CC4CC(CC(C4)C2)C3)cc1
inactive: dose: 12.5 mg/kg/injection, schedule: Q04DX002 (ip), vehicle: saline with Tween-80 101 % of control | [11] 93 % of control | [12] 96 % of control

Nc1nc(N)c(-c2cccc(Cl)c2)c(COc2ccc([N+](=O)[O-])cc2)n1
inactive: [13] 94 % of control | [14] 92 % of control | [15] 93 % of control

CCN(CC)CCSCCSCCN(CC)CC
inactive: [17] 100 % of control | [18] 100 % of control

COc1ccc(OCC(O)CO)cc1 (configuration not stated)
inactive: [17] 102 % of control | [18] 102 % of control | [19] 97 % of control

CC(=O)OCC1OC(n2cnc3c(Cl)ncnc32)C(OC(C)=O)C1OC(C)=O (configuration not stated)
inactive: [7] 94 % of control | dose: 25.0 mg/kg/injection, schedule: Q01DX005 (ip), vehicle: other 88 % of control | dose: 50.0 mg/kg/injection, schedule: Q01DX005 (ip), vehicle: other 98 % of control | dose: 100.0 mg/kg/injection, schedule: Q01DX005 (ip), vehicle: other 96 % of control | dose: 200.0 mg/kg/injection, schedule: Q01DX005 (ip), vehicle: other 100 % of control | dose: 400.0 mg/kg/injection, schedule: Q01DX005 (ip), vehicle: other 102 % of control

Cc1ccn2c(=O)c(CCBr)c(C)nc2c1
inactive: dose: 75.0 mg/kg/injection, schedule: Q01DX001 (ip), vehicle: saline 96 % of control

O=C1/C(=C/c2ccccc2[N+](=O)[O-])Cc2ccccc21
inactive: dose: 100.0 mg/kg/injection, schedule: Q04DX003 (ip), vehicle: Klucel (hydroxypropylcellulose) (HPC) 100 % of control | dose: 200.0 mg/kg/injection, schedule: Q04DX003 (ip), vehicle: Klucel (hydroxypropylcellulose) (HPC) 100 % of control | dose: 400.0 mg/kg/injection, schedule: Q04DX003 (ip), vehicle: Klucel (hydroxypropylcellulose) (HPC) 103 % of control

CC1=C(c2ccccc2)C(c2ccccc2)C(C)C1=O (configuration not stated)
inactive: [4] 100 % of control | [5] 98 % of control | [6] 87 % of control

O=c1ccc(OS(=O)(=O)c2ccccc2)n[nH]1
inactive: [8] 95 % of control | [9] 87 % of control | [10] 104 % of control

O=C(O)C(Br)C(Br)c1ccccc1 (configuration not stated)
inactive: [4] 92 % of control | [5] 93 % of control | [6] 93 % of control

CCN1C=C/C(=C/c2cc3scc(-c4ccccc4)[n+]3c3ccccc23)c2ccccc21
inactive: dose: 0.01 mg/kg/injection, schedule: Q01DX009 (ip), vehicle: saline 97 % of control | dose: 0.02 mg/kg/injection, schedule: Q01DX009 (ip), vehicle: saline 100 % of control | dose: 0.04 mg/kg/injection, schedule: Q01DX009 (ip), vehicle: saline 103 % of control

BrCCOc1ccccc1
inactive: dose: 100.0 mg/kg/injection, schedule: Q04DX003 (ip), vehicle: other 108 % of control | dose: 200.0 mg/kg/injection, schedule: Q04DX003 (ip), vehicle: other 97 % of control | dose: 400.0 mg/kg/injection, schedule: Q04DX003 (ip), vehicle: other 86 % of control

CC(=O)Nc1onc(C)c1NC(C)=O
inactive: [4] 95 % of control | [5] 101 % of control | [6] 95 % of control
